# Measured values published in PubChem BioAssay AID551 (University of Pittsburgh Molecular Library Screening Center, 2006).
# The source made the active and inactive calls. How the calls were made is not given here.
# Target: Dual specificity protein phosphatase 1 (Homo sapiens) (UniProt P28562)
# Assay: MKP-1 phosphatase inhibitor potency, dose response, biochemical, in vitro, confirmation (AID 551)
# Settings: recombinant MKP-1 phosphatase, fluorescence substrate
# Sequence of Dual specificity protein phosphatase 1 (Homo sapiens) (P28562 whole entry, looked up): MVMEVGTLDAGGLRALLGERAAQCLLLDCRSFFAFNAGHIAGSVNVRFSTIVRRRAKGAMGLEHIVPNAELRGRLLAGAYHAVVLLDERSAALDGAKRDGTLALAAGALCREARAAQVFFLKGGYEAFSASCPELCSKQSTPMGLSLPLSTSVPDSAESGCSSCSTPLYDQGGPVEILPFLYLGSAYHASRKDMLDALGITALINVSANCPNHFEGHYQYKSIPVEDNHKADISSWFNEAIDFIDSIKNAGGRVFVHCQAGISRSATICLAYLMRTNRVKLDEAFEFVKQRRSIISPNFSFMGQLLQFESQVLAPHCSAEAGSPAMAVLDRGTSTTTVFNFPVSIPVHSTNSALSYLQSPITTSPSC
row,SMILES,IC50
1,O=C1c2cccnc2C(Nc2ccc(S(=O)(=O)N3CCCCCC3)cc2)N1Cc1ccccc1 (centres undefined),> 50 µM (inactive)
2,N#C/C(=C(/O)CSc1nnc(Cc2cccs2)n1C1CCCCC1)c1nc2ccccc2[nH]1,> 50 µM (inactive)
3,CCOC(=O)c1ccc(NC2c3ncccc3C(=O)N2Cc2ccc(F)cc2)cc1 (centres undefined),> 50 µM (inactive)
4,Oc1ccc2ccccc2c1C=NC12CN3CCN(CN(C3)C1)C2,> 50 µM (inactive)
5,Cc1cc(C)n2c(SCC(=O)N3CCN(S(=O)(=O)c4ccc(Cl)cc4)CC3)nnc2n1,50 µM
6,COC(=O)C1=C(C)NC2=C(C(=O)c3ccccc32)C1c1ccc(-c2ccc(C(=O)O)cc2)o1 (centres undefined),> 50 µM (inactive)
7,CCSCCOC(=O)C1=C(C)NC2=C(C(=O)CCC2)C1c1coc2ccccc2c1=O (centres undefined),> 50 µM (inactive)
8,O=C1c2ccccc2-c2onc3ccc(NCCCn4ccnc4)c1c23,27.8 µM
9,O=C1C(C2=C(O)c3ccccc3C2=O)=Nc2ccccc21,> 50 µM (inactive)
